For the assay, the system named is KRAS G12V dependent lung adenocarcinoma cell line, NCI-H441. As to the kind of experiment: Cellular pERK (Thr202/Tyr204) FRET/HTRF assay. It is filed as cell-based. The conditions noted are these: Homo sapiens, NCI-H441, cellular pERK (Thr202/Tyr204) HTRF, NCI-H441 cells. The gist of the method: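 Using a mix-and-read HTRF kit, phospho-ERK (Thr202/Tyr204) was detected in NCI-H441 lysates following 1 hr compound incubation at 37 °C, 5% CO2. Cells had been seeded overnight beforehand, and IC50 was derived by curve fitting.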
For orientation: In TR-FRET formats the signal depends on donor and acceptor labels being close together.
`[2H]C([2H])(Oc1nc(N2CCOC[C@H]3[C@H](F)[C@H]32)c2cnc(-c3cncc4ccc(F)c(Cl)c34)c(F)c2n1)[C@@]12CCCN1C[C@H](F)C2` [Example 113, (1S,7S,8S)-2-(7-(5-chloro-6-fluoroisoquinolin-4-yl)-8-fluoro-2-(((2R,7aS)-2-fluorotetrahydro-1H-pyrrolizin-7a(5H)-yl)methoxy-d2)pyrido[4,3-d]pyrimidin-4-yl)-8-fluoro-5-oxa-2-azabicyclo[5.1.0]octane] yielded an IC50 of 500 to 10000 nM.
The same measure for `[2H]C([2H])(Oc1nc(N2CCOC[C@H]3[C@H](F)[C@H]32)c2cnc(-c3cncc4ccc(F)c(C#C)c34)c(F)c2n1)[C@@]12CCCN1C[C@H](F)C2` [Example 114, (1S,7S,8S)-2-(7-(5-Ethynyl-6-fluoroisoquinolin-4-yl)-8-fluoro-2-(((2R,7aS)-2-fluorotetrahydro-1H-pyrrolizin-7a(5H)-yl)methoxy-d2)pyrido[4,3-d]pyrimidin-4-yl)-8-fluoro-5-oxa-2-azabicyclo[5.1.0]octane]: less than 50 nM; for `[2H]C([2H])(Oc1nc(N2CCCO[C@H]3[C@H](F)[C@H]32)c2cnc(-c3cc(N)cc4c(F)c(F)c(F)c(C#C)c34)c(F)c2n1)[C@@]12CCCN1C[C@H](F)C2` [Example 115, 5-ethynyl-6,7,8-trifluoro-4-(8-fluoro-4-((1R,7S,8R)-8-fluoro-2-oxa-6-azabicyclo[5.1.0]octan-6-yl)-2-(((2R,7aS)-2-fluorotetrahydro-1H-pyrrolizin-7a(5H)-yl)methoxy-d2)pyrido[4,3-d]pyrimidin-7-yl)naphthalen-2-amine]: less than 50 nM; for `[2H]C([2H])(F)Oc1c(F)ccc2cc(N)cc(-c3ncc4c(N5CCOC[C@H]6[C@H](F)[C@H]65)nc(OC([2H])([2H])[C@@]56CCCN5C[C@H](F)C6)nc4c3F)c12` [Example 116, 6-Fluoro-4-(8-fluoro-4-((1S,7S,8S)-8-fluoro-5-oxa-2-azabicyclo[5.1.0]octan-2-yl)-2-(((2R,7aS)-2-fluorotetrahydro-1H-pyrrolizin-7a(5H)-yl)methoxy-d2)pyrido[4,3-d]pyrimidin-7-yl)-5-(fluoromethoxy-d2)naphthalen-2-amine]: less than 50 nM.
In turn, `[2H]C([2H])(Oc1nc(N2CCCO[C@H]3[C@H](F)[C@H]32)c2cnc(-c3cc(N)cc4c(F)cc(F)c(C#C)c34)c(F)c2n1)[C@@]12CCCN1C[C@H](F)C2` [Example 117, 5-ethynyl-6,8-difluoro-4-(8-fluoro-4-((1R,7S,8R)-8-fluoro-2-oxa-6-azabicyclo[5.1.0]octan-6-yl)-2-(((2R,7aS)-2-fluorotetrahydro-1H-pyrrolizin-7a(5H)-yl)methoxy-d2)pyrido[4,3-d]pyrimidin-7-yl)naphthalen-2-amine] yielded an IC50 of less than 50 nM.
As for `[2H]C([2H])(Oc1nc(N2CCOC[C@@H]3[C@H]2[C@@]3([2H])F)c2cnc(-c3cccc4ccc(F)c(C#C)c34)c(F)c2n1)[C@@]12CCCN1C[C@H](F)C2` [Example 118, (1S,7S,8S)-2-(7-(8-ethynyl-7-fluoronaphthalen-1-yl)-8-fluoro-2-(((2R,7aS)-2-fluorotetrahydro-1H-pyrrolizin-7a(5H)-yl)methoxy-d2)pyrido[4,3-d]pyrimidin-4-yl)-8-fluoro-5-oxa-2-azabicyclo[5.1.0]octane-8-d], the IC50 was less than 50 nM.
The same measure for `[2H]C([2H])([2H])Oc1c(F)c(F)c(F)c2cc(N)cc(-c3ncc4c(N5CCOC[C@@H]6[C@H]5[C@@]6([2H])F)nc(OC([2H])([2H])[C@@]56CCCN5C[C@H](F)C6)nc4c3F)c12` [Example 119, 6,7,8-trifluoro-4-(8-fluoro-4-((1S,7S,8S)-8-fluoro-5-oxa-2-azabicyclo[5.1.0]octan-2-yl-8-d)-2-(((2R,7aS)-2-fluorotetrahydro-1H-pyrrolizin-7a(5H)-yl)methoxy-d2)pyrido[4,3-d]pyrimidin-7-yl)-5-(methoxy-d3)naphthalen-2-amine]: less than 50 nM; for `[2H]C([2H])([2H])Oc1c(F)c(F)c(F)c2cc(N)cc(-c3ncc4c(N5CCOC[C@H]6[C@H](F)[C@H]65)nc(OC[C@]56CC(=C)CN5CCC65CC5)nc4c3F)c12` [Example 120, 6,7,8-trifluoro-4-(8-fluoro-4-((1S,7S,8S)-8-fluoro-5-oxa-2-azabicyclo[5.1.0]octan-2-yl)-2-(((R)-6′-methylenetetrahydrospiro[cyclopropane-1,1′-pyrrolizin]-7a′(5′H)-yl)methoxy)pyrido[4,3-d]pyrimidin-7-yl)-5-(methoxy-d3)naphthalen-2-amine]: less than 50 nM.
In the case of `[2H]C([2H])([2H])Oc1c(F)c(F)c(F)c2cc(N)cc(-c3ncc4c(N5CCOC[C@H]6[C@H](F)[C@H]65)nc(OC[C@@]56CC(=C)CN5CCC65CC5)nc4c3F)c12` [Example 121, 6,7,8-trifluoro-4-(8-fluoro-4-((1S,7S,8S)-8-fluoro-5-oxa-2-azabicyclo[5.1.0]octan-2-yl)-2-(((S)-6′-methylenetetrahydrospiro[cyclopropane-1,1′-pyrrolizin]-7a′(5′H)-yl)methoxy)pyrido[4,3-d]pyrimidin-7-yl)-5-(methoxy-d3)naphthalen-2-amine] it was less than 50 nM; in that of `[2H]C([2H])(Oc1nc(N2CCOC[C@@H]3[C@H]2[C@@]3([2H])F)c2cnc(-c3cccc4cc(F)c(F)c(C#C)c34)c(F)c2n1)[C@@]12CCCN1C[C@H](F)C2` [Example 122, (1S,7S,8S)-2-(7-(8-ethynyl-6,7-difluoronaphthalen-1-yl)-8-fluoro-2-(((2R,7aS)-2-fluorotetrahydro-1H-pyrrolizin-7a(5H)-yl)methoxy-d2)pyrido[4,3-d]pyrimidin-4-yl)-8-fluoro-5-oxa-2-azabicyclo[5.1.0]octane-8-d], less than 50 nM.
On to `[2H]C([2H])([2H])Oc1c(F)c(F)c(F)c2cccc(-c3ncc4c(N5CCOC[C@H]6[C@H](F)[C@H]65)nc(OC([2H])([2H])[C@@]56CCCN5C[C@H](F)C6)nc4c3F)c12` [Example 123, (1S,7S,8S)-8-fluoro-2-(8-fluoro-2-(((2R,7aS)-2-fluorotetrahydro-1H-pyrrolizin-7a(5H)-yl)methoxy-d2)-7-(5,6,7-trifluoro-8-(methoxy-d3)naphthalen-1-yl)pyrido[4,3-d]pyrimidin-4-yl)-5-oxa-2-azabicyclo[5.1.0]octane], for which the IC50 was 50 to 500 nM.
`[2H]C([2H])([2H])Oc1c(F)c(F)c(F)c2cc(N)cc(-c3ncc4c(N5CCOC([2H])([2H])[C@H]6[C@H](F)[C@H]65)nc(OC([2H])([2H])[C@@]56CCCN5C[C@H](F)C6)nc4c3F)c12` [Example 124, 6,7,8-trifluoro-4-(8-fluoro-4-((1S,7S,8S)-8-fluoro-5-oxa-2-azabicyclo[5.1.0]octan-2-yl-6,6-d2)-2-(((2R,7aS)-2-fluorotetrahydro-1H-pyrrolizin-7a(5H)-yl)methoxy-d2)pyrido[4,3-d]pyrimidin-7-yl)-5-(methoxy-d3)naphthalen-2-amine] displayed an IC50 of less than 50 nM.
Regarding `[2H]C([2H])([2H])Oc1c(F)c(F)c(F)c2cc(N)cc(-c3ncc4c(N5CCOC[C@H]6[C@H](F)[C@H]65)nc(OC[C@@]56CCCN5CC(=C)C6)nc4c3F)c12` [Example 125, 6,7,8-trifluoro-4-(8-fluoro-4-((1S,7S,8S)-8-fluoro-5-oxa-2-azabicyclo[5.1.0]octan-2-yl)-2-(((S)-2-methylenetetrahydro-1H-pyrrolizin-7a(5H)-yl)methoxy)pyrido[4,3-d]pyrimidin-7-yl)-5-(methoxy-d3)naphthalen-2-amine], the IC50 was less than 50 nM.

As a reminder, the IC50 is the point on the concentration scale where inhibition reaches its midpoint. High values mean weaker potency, low ones greater potency.
